Patent publication US8501924B2, “Nucleophosmin protein (NPM) mutants, corresponding gene sequences and uses thereof” (priority 2004, dated 2013)
“Also recorded” adds a separate entry of the source.

Assays:
Crm1 [1] = target: T1, Crm1 (Mus musculus, UniProt Q6P5F9); assay: Inhibition of Crm1-dependent nuclear exportation in NIH-3T3 cells transfected with eGFP-NPM constructs; format: cell-based, murine; conditions: for sub-cellular localization of NPM mutant proteins after treatment (confocal microscopy): transfected NIH3T3 cells (HI299 or NIH3T3), leptomycin B 20 ng/ml
T1 construct: endogenous in cells; host or cells: NIH-3T3 cells, transfected only with eGFP-NPM reporter constructs
T1 sequence (Q6P5F9 whole entry): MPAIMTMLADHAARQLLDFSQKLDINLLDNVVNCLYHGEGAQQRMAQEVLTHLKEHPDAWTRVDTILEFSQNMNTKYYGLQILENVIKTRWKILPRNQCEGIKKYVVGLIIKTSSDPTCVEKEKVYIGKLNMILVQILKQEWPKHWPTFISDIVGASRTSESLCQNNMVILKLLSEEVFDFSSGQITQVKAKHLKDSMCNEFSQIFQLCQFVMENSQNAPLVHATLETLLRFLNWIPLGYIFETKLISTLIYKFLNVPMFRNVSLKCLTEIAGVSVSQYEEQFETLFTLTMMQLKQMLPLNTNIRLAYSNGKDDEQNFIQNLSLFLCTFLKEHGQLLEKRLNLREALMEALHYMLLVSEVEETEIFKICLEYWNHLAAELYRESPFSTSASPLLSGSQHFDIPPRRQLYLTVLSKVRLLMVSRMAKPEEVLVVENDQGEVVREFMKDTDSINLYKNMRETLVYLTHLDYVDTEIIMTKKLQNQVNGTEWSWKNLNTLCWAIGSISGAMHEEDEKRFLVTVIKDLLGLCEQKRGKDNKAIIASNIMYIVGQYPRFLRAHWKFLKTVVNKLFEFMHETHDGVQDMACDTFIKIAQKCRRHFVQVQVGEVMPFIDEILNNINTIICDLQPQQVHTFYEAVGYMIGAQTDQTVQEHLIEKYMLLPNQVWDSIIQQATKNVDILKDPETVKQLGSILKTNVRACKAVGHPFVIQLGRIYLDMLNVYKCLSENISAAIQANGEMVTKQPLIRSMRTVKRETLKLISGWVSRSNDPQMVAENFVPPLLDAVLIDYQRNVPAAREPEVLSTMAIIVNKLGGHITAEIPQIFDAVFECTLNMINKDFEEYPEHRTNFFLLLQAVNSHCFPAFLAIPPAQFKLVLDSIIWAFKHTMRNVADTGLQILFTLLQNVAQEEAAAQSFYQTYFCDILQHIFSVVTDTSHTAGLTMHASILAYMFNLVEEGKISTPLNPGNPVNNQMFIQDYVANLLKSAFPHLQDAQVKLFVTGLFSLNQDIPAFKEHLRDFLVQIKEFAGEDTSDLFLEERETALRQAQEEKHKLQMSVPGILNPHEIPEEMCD
Experimental: NIH-3T3 cells were transfected using Lipofectamin 2000 (Invitrogen Carlsbad, Calif., USA) following the manufacturer instructions. After 24 hours, the cells grown on the slide were incubated with cycloeximide (Merck Biosciences Ltd, Nottingham UK) 10 micro grams/ml (30 minutes) and leptomycin B (Merck Biosciences Ltd, Nottingham UK) 20 ng/ml (5 hours), or other Crm1 inhibitors such as ratjadons A and C (Alexis Biochemicals, Carlsbad, Calif., USA) 20 ng/ml (5 hours).
The cells were fixed in 4% paraformaldehyde (10 minutes) for immunofluorescence and confocal microscope analysis.
For “time course” experiments, transfected cells were transferred inside an Attofluor chamber (Molecular Probes, Eugene, Oreg., USA) and were observed using a MRC-1024 confocal apparatus (Biorad Cambridge, UK) assembled on an Olympus IMT-2 microscope. The images of a single section were recorded before and after the addition of leptomicin B, at 60 second intervals, using the time-series function of Laser-Sharp program (BioRad). The excitation wavelength was 488 nm and images were detected using a filter from 505 to 550 nm on the PMT2.
The images were processed and analysed using the well known ImageJ program (Rasband WS, Image J, U.S. National Institutes of Health, Bethesda, Md., USA, http://rsb.info.nih.gov/ij/, 1997-2005).
For western-blotting analyses of the sub-cellular distribution of GFP-NPM mutant A protein, NIH-3T3 cells transfected with GFP vector or with GFP-NPM mutant A, as described above, were incubated with leptomicin B 20 ng/ml (or with methanol as control) without cycloeximide for 3 or 6 hours. Then cells were harvested, washed with PBS and lysed in hypotonic buffer according to the method of Schreiber et al. (1989). The supernatant was preserved as cytoplasmic fraction. The pellet, containing nuclei, was again washed with the hypotonic buffer, then solubilised in a hypertonic buffer and boiled in a solution containing SDS before loading.
Equivalent dilutions (with the same cell number) of cytoplasmic and nuclear fractions were loaded, blotted on nitrocellulose and incubated with an anti-GFP monoclonal antibody (Roche, Indianapolis, Ind., USA) for Western-blot analysis of the distribution of GFP-NPM mutant A.

Crm1 [2] = target: T2, Crm1 (Homo sapiens, UniProt O14980); assay: Inhibition of Crm1-dependent nuclear exportation in transfected H1299 cells; format: cell-based; conditions: HI299 cells
T2 sequence (O14980 whole entry): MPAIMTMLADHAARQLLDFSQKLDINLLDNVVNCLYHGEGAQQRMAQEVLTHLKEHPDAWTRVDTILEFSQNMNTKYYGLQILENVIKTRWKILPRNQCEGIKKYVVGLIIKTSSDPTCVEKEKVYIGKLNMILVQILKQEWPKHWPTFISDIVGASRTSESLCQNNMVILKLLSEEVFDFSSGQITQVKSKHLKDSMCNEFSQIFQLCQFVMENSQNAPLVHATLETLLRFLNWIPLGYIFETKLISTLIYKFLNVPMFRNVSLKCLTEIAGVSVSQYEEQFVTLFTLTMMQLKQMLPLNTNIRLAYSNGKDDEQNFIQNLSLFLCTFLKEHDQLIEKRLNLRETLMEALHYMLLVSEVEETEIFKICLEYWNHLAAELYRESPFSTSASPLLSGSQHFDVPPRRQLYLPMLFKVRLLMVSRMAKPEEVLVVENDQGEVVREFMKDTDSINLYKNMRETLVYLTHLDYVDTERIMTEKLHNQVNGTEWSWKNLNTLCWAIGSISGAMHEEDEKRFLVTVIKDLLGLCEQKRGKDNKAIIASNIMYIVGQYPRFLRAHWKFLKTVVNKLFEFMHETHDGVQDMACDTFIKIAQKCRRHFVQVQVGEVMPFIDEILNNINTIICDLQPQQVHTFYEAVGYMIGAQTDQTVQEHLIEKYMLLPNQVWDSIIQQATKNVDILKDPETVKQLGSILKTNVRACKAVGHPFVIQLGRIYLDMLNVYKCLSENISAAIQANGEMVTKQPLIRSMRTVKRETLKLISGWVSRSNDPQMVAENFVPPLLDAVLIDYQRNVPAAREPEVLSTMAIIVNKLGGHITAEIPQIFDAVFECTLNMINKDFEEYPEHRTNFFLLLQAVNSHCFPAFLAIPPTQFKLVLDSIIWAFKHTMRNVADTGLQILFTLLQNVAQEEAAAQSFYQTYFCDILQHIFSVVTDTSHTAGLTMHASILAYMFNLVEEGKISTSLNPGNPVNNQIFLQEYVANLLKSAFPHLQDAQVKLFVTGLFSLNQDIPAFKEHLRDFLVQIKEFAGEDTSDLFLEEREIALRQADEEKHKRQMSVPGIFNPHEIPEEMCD
Experimental: The H1299 cells were seeded on the surface of six-well plates 24 hours before transfection. 5 μg of expression vector encoding for wild type HA-NPM, GFP-NPM-mutant A, or both, were transfected using the precipitation method with calcium-phosphate. After 24 hours, the cells were treated with 20 nM leptomycin B, a Crml specific inhibitor (Sigma, St. Louis, Mo., USA) for 8 hours or not treated, respectively. The cells then were fixed in 4% paraformaldehyde for the immunofluorescence study.
The DAPI staining was used to visualise nucleuses of H1299 cells transfected with the GFP-NPM-mutant A and with GFP-NPM wt. For Flag-HA constructs, the fixed cells were made permeable with 0.2% Triton-X 100 (10 minutes) followed by blocking with 10% anti-goat serum (30 minutes). Then primary anti-HA antibody was added (1:1000, Roche Indianapolis, Ind., USA) for 1 hour followed by incubation for 30 minutes with the secondary Alexa-568 antibody (1:1000, Molecular Probes, Oregon, USA). The images were taken using a digital camera with the Spot 4.09 program (Diagnostic Instruments, Sterling Heights, Mich., USA).

Crm1 [3] = target: T2, Crm1; assay: Nuclear re-localization of mutant NPM in OCI/AML3 cells; format: cell-based; conditions: OCI/AML3, mutation A, LMB 20 ng/ml
Crm1 [4] = target: T2, Crm1; assay: Nuclear re-localization of NPM in leukaemic cells of NPMc+ AML patients (mutation A); format: cell-based; conditions: NPMc+ AML patient cells, leptomycin B 20 ng/ml
Experimental: Cells deriving from two patients with NPMc+AML (carrying the mutation A) and from OCI/AML3 cellular line were harvested in medium (10^6 cell/ml in 24-well plates) and incubated at 37° C. with 5% CO2 […]. After the incubation overnight with leptomycin B (20 ng/ml), the cells were washed with PBS and centrifuged. The cell pellet was fixed in B5 and paraffin for the immunostaining.
The NPM coloration of paraffin embedded sections of AML cases containing the mutation A was carried out with monoclonal anti-NPM antibodies followed by a Alexa 488 conjugated secondary (Molecular Probes, Oregon, USA); the nuclei were contra-stained with propidium iodide. The images were taken with a confocal microscope Zeiss LSM 510 (Carl Zeiss, Jena, Del.), using laser excitation wavelengths at 488 nm (for ALexa 488), 543 nm (for Texas Red and the propidium iodide) and 633 nm (for TO-PRO-3), respectively. The laser intensity tuning, diameter of pinholes, and configuration of the light detection were set to achieve the best signal/noise ratio and avoid fluorescence crossover. The images were then transferred to a SGI Octane workstation (Silicon graphics, Mountain View, Calif., USA) for further elaboration; 3D reconstruction was made with the shade or iso-surface method using the Imaris program (Bitplane, Zurich, CH).

[5] = NIH-3T3 cells, with and without LMB

Compound: CCC(=C/[C@H](C)C/C=C/C(C)=C/[C@@H](C)C(=O)[C@@H](C)[C@H](O)[C@@H](C)C/C(C)=C/C(=O)O)/C=C/[C@@H]1OC(=O)C=C[C@@H]1C [Leptomycin B, leptomycin B]
- re-localization of type E NPM mutant (tryptophan 288 kept) (Crm1 [1]; NIH-3T3 cells, after Leptomicin B): not only at nucleoplasma but also at nucleolus level
- mutant type A re-localized in nucleus (Crm1 [1]; NIH-3T3 cells, eGFP-NPMmutA, 20 minutes after LMB): About 50%
- time for the whole re-localization process to be completed (Crm1 [1]; NIH-3T3 cells, eGFP-NPMmutA, LMB): 1 h
- Western blot sub-cellular distribution of GFP-NPM mutant A (Crm1 [1]; NIH-3T3 cells, leptomicin B 20 ng/ml, 3 or 6 hours, no cycloeximide): progressively accumulates in the pellet containing nucleuses
- eGFP-NPMmutA fluorescence in regions of interest over time (Crm1 [1]; NIH-3T3 cells, time course after addition of LMB): reduction of fluorescence in cytoplasm and Golgi area and concomitant fluorescence increase in nucleoplasm
- localization of GFP-NPMwt (Crm1 [1]; [5]): localizes in the nucleoli both in the presence and in the absence of LMB
- localization of NPM mut A no-NES (Crm1 [1]; [5]): localized in the nucleoplasm both in presence and in absence of LMB
- localization of mutant A with both tryptophans re-inserted (C288W+A290W) (Crm1 [1]; NIH-3T3 cells, with and without Leptomicin B): locates completely in nucleoli, independently from the presence of Leptomicin B
- sub-cellular localization of NPM mutant proteins after treatment (confocal microscopy) (Crm1 [1]; listed as LMB): repositions in nucleoplasm
- sub-cellular localization of NPM mutant proteins after treatment (confocal microscopy) (Crm1 [1]; listed as Leptomicin B): re-localized from the cytoplasmic to the nuclear compartment (nucleoplasm); also recorded: re-localized in the nucleus and, specifically, in nucleoplasm
- localization of eGFP NPM mutants A to D (Crm1 [2]; in the presence of LMB 20 nM, 8 hours): completely replaced in the nucleus in the presence of LMB
- localization of eGFP-NPMwt (Crm1 [2]; with and without LMB): localized in nucleoli both in the presence and in the absence of LMB
- NPM localization in OCI/AML3 cells (376 staining) (Crm1 [3]): re-localization of NPM in the nucleoplasm
- NPM localization in purified leukaemic cells (376 staining, confocal) (Crm1 [4]): NPM is in nucleus again
